Test results taken from patent EP0206783A2, “Expression and secretion of polypeptides from saccharomyces cerevisiae” (The Salk Institute Biotechnology Industrial Associates, Inc., priority 1985, dated 1986).
Ends that are not written are not given here.

Test system: pituitary cells
Assay: rat pituitary cell bioassay for GRF (release of growth hormone)
Type: cell-based
Settings: plated rat pituitary cells, dexamethasone added, GH measured by anti-rat GH RIA; yeast peptide purified, from pTRP213-transformed GG100-14D
Experimental: A rat pituitary cell bioassay for GRF was conducted using the purified GRF analog secreted from pTRP213-transformed S. cerevisiae cells (GG100-14D). The ability of the GRF analog to cause the release of growth hormone from the pituitary cells was measured and compared to the ability of a synthetic hGRF(1-40)-OH standard to do the same. Such an analysis allowed the biological activity of yeast-produced GRF analog to be evaluated.
Typically, pituitaries of 20 rats were removed and treated with collagenase to obtain a suspension of approximately 8×10^7 cells which were then plated in the appropriate medium. The cells, attached to tissue culture dishes, were treated with yeast-derived peptide or synthetic standard within three to five days after plating. Dexamethasone was added to enhance the effect of GRF on GH secretion; cells treated in this manner secrete 8-9 times more GH than do control cells treated with GRF but not dexamethasore. Growth hormone secretion levels were measured using an anti-rat GH RIA which had been standardized with respect to the synthetic standard.
The percent of maximum rat growth hormone secretion upon treatment of the plated pituitary cells with purified GRF analog secreted from yeast and treatment with synthetic hGRF(1-40)-OH was determined. The ED50 value for secretion with both treatments was about. 32 pM.

hGRF(1-40)-OH (YADAIFTNSYRKVLGQLSARKLLQDIMSRQQGESNQERGA-OH; UniProt P01286 32-71, looked up, fragment) [synthetic hGRF(1-40)-OH, synthetic polypeptide standard, hGRF(1-40)-OH (with Met at position 27)]
ED50 value for secretion (percent of maximum rat growth hormone secretion): ~0.032 nM
